In ChEMBL document CHEMBL1145940, “Computer modeling of selective regions in the active site of nitric oxide synthases: implication for the design of isoform-selective inhibitors” (J Med Chem, 2003):
pKi: −log10 of the molar value. Peptide text beside a SMILES is read from it.

Assays:
[1] = Inhibitory activity against Inducible nitric oxide synthase
[2] = Inhibitory activity against endothelial nitric oxide synthase (eNOS)
[3] = Inhibitory activity against neuronal nitric oxide synthase
[4] = Selectivity for neuronal over endothelial nitric oxide synthase

| Structure (SMILES) | pKi [1] | pKi [2] | pKi [3] | Selectivity [4] |
| --- | --- | --- | --- | --- |
| NCNC[C@@H](N)CCC/N=C(/N)N[N+](=O)[O-] | 4.41 | 3.50 | 6.92 | 2580 |
| NCc1ccccc1NC[C@@H](N)CCC/N=C(\N)N[N+](=O)[O-] | 4.53 | 4.40 | 5.26 | 7.17 |
| CCCCC[C@H]1NC(=N)C[C@H]1C | 6.60 | 3.65 | 5.49 |  |
| NCCCC[C@H](N)C(=O)N[C@H](CCC/N=C(\N)N[N+](=O)[O-])C(N)=O (HELM PEPTIDE1{K.[N=C(NCCC[C@@H](N[*:1])C(=O)[*:2])N[N+](=O)[O-]].[am]}$$$$V2.0) | 2.33 | 3.64 | 5.77 |  |
| COC(=O)[C@@H](CCC/N=C(\N)N[N+](=O)[O-])NC(=O)[C@@H](N)Cc1ccccc1 (HELM PEPTIDE1{F.[N=C(NCCC[C@@H](N[*:1])C(=O)[*:2])N[N+](=O)[O-]].[CO[*:1]]}$$$$V2.0) | 2.12 | 3.82 | 4.05 | 1.7 |
| NCCCNC[C@@H](N)CCC/N=C(\N)N[N+](=O)[O-] | 3.91 | 3.39 |  |  |
| NC(=O)[C@@H](CCC/N=C(/N)N[N+](=O)[O-])NC(=O)[C@H](N)Cc1ccccc1 |  | 4.05 | 4.77 | 5.3 |
| NCc1cccc(NC[C@@H](N)CCC/N=C(\N)N[N+](=O)[O-])c1 | 4.10 | 3.71 | 6.68 |  |
| NCCCC[C@@H](N)C(=O)N[C@H](CCC/N=C(/N)N[N+](=O)[O-])C(N)=O (HELM PEPTIDE1{[dK].[N=C(NCCC[C@@H](N[*:1])C(=O)[*:2])N[N+](=O)[O-]].[am]}$$$$V2.0) | 3.04 | 4.52 | 6.05 |  |
| NCc1ccc(NC[C@@H](N)CCC/N=C(\N)N[N+](=O)[O-])cc1 | 3.47 | 3.39 | 5.86 | 299 |
| N/C(=N\CCC[C@@H](NC(=O)[C@H](N)Cc1ccccc1)C(=O)O)N[N+](=O)[O-] (HELM PEPTIDE1{[dF].[N=C(NCCC[C@@H](N[*:1])C(=O)O)N[N+](=O)[O-]]}$$$$V2.0) | 1.87 | 4.05 | 4.77 | 5.3 |
| NCCc1ccc(NC[C@@H](N)CCC/N=C(\N)N[N+](=O)[O-])cc1 |  |  | 5.78 |  |
| [H]/N=C(/NCCC[C@H](N)C(=O)N[C@H]1CNC(C(N)=O)C1)N[N+](=O)[O-] (stereo partly drawn) | 4.53 |  | 7.13 |  |
| NC[C@H](NC(=O)[C@@H](N)CCC/N=C(\N)N[N+](=O)[O-])C(N)=O (HELM PEPTIDE1{[N=C(NCCC[C@H](N)C(=O)[*:2])N[N+](=O)[O-]].[NC[C@H](N[*:1])C(=O)[*:2]].[am]}$$$$V2.0) | 4.60 | 3.70 | 6.51 |  |
| N/C(=N/CCC[C@H](N)CNc1cccnc1)N[N+](=O)[O-] | 3.85 | 3.28 | 6.26 | 951 |
| NC(=O)[C@H](N)NC(=O)[C@@H](N)CCC/N=C(/N)N[N+](=O)[O-] | 4.21 | 3.58 | 5.96 | 237 |
| N/C(=N\CCC[C@H](N)CNCc1cccnc1)N[N+](=O)[O-] | 3.40 | 3.71 | 6.12 | 254 |
| COC(=O)[C@@H](CCCNC(=N)N[N+](=O)[O-])NC(=O)[C@H](N)Cc1ccccc1 (HELM PEPTIDE1{[dF].[N=C(NCCC[C@@H](N[*:1])C(=O)[*:2])N[N+](=O)[O-]].[CO[*:1]]}$$$$V2.0) | 2.44 | 5.30 | 5.70 | 2.5 |
| N=C(NCCC[C@H](N)C(=O)N[C@@H]1CN[C@@H](C(N)=O)C1)N[N+](=O)[O-] | 3.70 | 3.96 |  |  |
| Cc1c(C)c2c(c(C)c1O)CC[C@@](C)(C(=O)C1CCC(c3ccc(NC(=N)c4cccs4)cc3)CC1)O2 (stereo partly drawn) | < 3.52 | 3.96 |  |  |
